According to patent US6750028B1, “Anti-fibrotic agent assay” (Ethicon, Inc, priority 1996, dated 2004):

Tests used:
TGF-β1 activation [1] = experiment: Macrophage activation assay (IC-21 macrophages, LPS, fetal fibroblast conditioned media, ELISA); type: cell-based, mouse
Procedure: (§1) Cultured macrophages were lifted from the dish with 3 ml of PBS. The PBS was balanced with 15 ml of RPMI-1640 containing 10% FBS. The cells were counted and then seeded in 100 mm plates at 1×10^6 cells/dish. When the cultured macrophages reached approximately 70% confluency (2-3 days) they were washed with PBS and RPMI-1640 medium containing 5% FBS and 10 ng/ml LPS was applied (FIG. 1). After 24 h of activation with LPS the cells were washed gently with PBS. At this point conditioned medium from confluent fetal dermal fibroblasts was collected and 5 ml was distributed into each dish containing macrophages. The cells were incubated for an additional 24 h, the media were collected, spun down at 600×g for 10 min and stored at 4° C. before TGF-β1 evaluation by ELISA. Each condition was done in duplicate. The cells, washed with PBS, were harvested for total RNA extraction.
Fetal dermal fibroblasts were seeded in 100 mm dishes at 1×10^6 cell/dish. The cells were grown to confluency (2-3 days). The cultures were washed with PBS and fresh medium, either DMEM supplemented with 10% FBS or AIM-V medium (a serum free medium) for serum-free conditions, was applied for 24 h (FIG. 1). The medium was collected and combined in order to obtain a homogenous pool of latent TGF-β1. The collection of the medium was done just prior to application in the macrophage assay.
(§2) Each measurement was performed in duplicates.

TGF-β1 activation [2] = experiment: Activation of rHLTGF-β1 by macrophages; type: cell-based, mouse; details: 200 pg/ml rHLTGF-β1
Procedure: as §1, §2
The substitution in the media with purified recombinant latent form of TGF-β1 was tested in an attempt to determine the requirement for fibroblast conditioned media in the macrophage assay. Only 3.3% of rHLTGF-β1 was activated by macrophages when the treatment with LPS was omitted (Table 5).

TGF-β1 activation [3] = experiment: TGF-β1 activation by HMB-2 melanoma cells (ELISA); type: cell-based, human
Procedure: as §2
(§3) It has been shown that cancer cells, such as human breast cancer, some melanoma cell lines and prostate adenocarcinoma cell lines, constitutively release biologically active TGF-β1 into the culture medium (24, 25, 29). Since the homotypic cell culture system would be of advantage due to its simplicity, an attempt was made to implement cancer cells as a method for TGF-β1 activation.

TGF-β1 activation [4] = experiment: TGF-β1 activation by prostate adenocarcinoma cells (ELISA); type: cell-based, human
Procedure: as §2, §3

TGF-β1 activation [5] = experiment: TGF-β1 activation by Bowes melanoma cells (ELISA); type: cell-based, human
Procedure: as §2, §3

TGF-β1 mRNA [6] = experiment: mRNA for TGF-β1 in macrophages by Northern blot; type: cell-based, mouse; details: LPS alone or LPS with M6P or DCA, FIG. 2
Procedure: The cells were washed with PBS, followed by addition of the extraction buffer provided with the kit (RNeasy RNA extraction kit). The lysed cells were scraped from the dish and collected in microtubes. Samples were either frozen at −70° C. before analysis or directly assessed following manufacturer protocol. Absorbance at 260 nm and 280 nm was measured and the integrity of RNA was evaluated by denaturing formaldehyde agarose gels stained with ethidium bromide.
Northern blot analysis was carried out as described previously (27). Briefly, total RNA samples (5 μg) were diluted in formaldehyde-MOPS buffer and subjected to electrophoresis in a denaturing 1.2% Sea Kem GTG agarose gel along with the RNA size markers. RNA was transferred to a nitrocellulose membrane by capillary transfer. The blots were prehybridized for 3 h at 42° C. in a solution containing 10% dextran sulfate, 2×Denhardt's solution, 50% formamide, 5×SSPE (0.75 M Sodium chloride, 0.05 M sodium phosphate, 0.005 M ethylenediaminetetraacetic acid)/0.1% SDS, and 250 μg/ml of sheared salmon testis DNA. Hybridization solution was essentially the same except that ^32P dCTP-labeled DNA probe and 150 μg/ml of salmon testis DNA were included. The hybridization was carried out for 16 h at 42° C. […]

TGF-β1 activation [7] = experiment: BAEC treated with retinoic acid, TGF-β1 in conditioned media by ELISA; type: cell-based, bovine
Procedure: The procedures for preparation of conditioned media were described previously (22). Briefly, for the retinoid experiment, BAEC cells were grown to confluency in 35 mm dishes. The cultures were rinsed with PBS (Phosphate Buffered Saline), and incubated in 1 ml of serum-free DMEM containing 0.1% of BSA and retinoic acid (10 μM) or vehicle (0.5% ethanol). The incubation was carried out for 24 h. The medium was aspirated, the cells were washed with PBS and then incubated in 1 ml of DMEM/0.1% BSA for an additional 12 h to produce conditioned medium. Conditioned media were centrifuged and used in the ELISA assay for TGF-β1 evaluation.
Each measurement was performed in duplicates. […]

M6P/IGF-II receptor mRNA = M6P/IGF-II receptor mRNA in human neonatal fibroblasts by RT-PCR; type: cell-based; details: 100 and 200 μM
Procedure: (§4) Human neonatal fibroblasts were seeded in 100 mm dishes at 1×10^6 cells/dish. […] In addition, cells were treated with two concentrations of Mannose 1-Phosphate (M1P) (100 and 200 μM) for 24 and 48 h. […] Each treatment was run in duplicates and repetitive analyses were performed.
(§5) The procedure used to transcribe the total RNA was described in detail previously (28). Briefly, the reaction was carried out in a total volume of 25 μl containing 1× reverse transcriptase buffer (50 mM Tris-HCl, pH 8.3, 75 mM KCl, 3 mM MgCl2), 10 mM DTT (Dithiothreitol), 2.5 mM each of dNTPs (Deoxynucleotides), 100 μg/ml of acetylated BSA, 4 units of rRNasin (ribonuclease inhibitor), 200 units of SuperScript™ RNase H^−Reverse Transcriptase, 0.1 μg of oligo (dT)12-18 and 1 μg of total RNA. Incubation was carried out for 1 h at 42° C. and was terminated by the addition of an equal volume of cold water.
(§6) A portion of the first strand cDNA reaction was used in PCR, which was carried out in 25 μl containing 16 mM Tris-HCl, pH 8.3, 50 mM KCl, 1.5 mM MgCl2, 0.01% gelatin, 200 μM of each dNTPs, 1 μM each sense and antisense oligonucleotides and 2.5 units of AmpliTaq DNA polymerase. Amplification was carried out for 35 cycles. Each cycle consisted of: denaturation 1 min at 95° C.; annealing at 55° C. (optimal for the pair of oligonucleotides used) for 2 min; and elongation at 72° C., 3 min. For the final cycle elongation was 7 min. Reaction products were separated by 2% agarose gel electrophoresis and were visualized by ethidium bromide staining. Sizes were determined using Q X 174 DNA/Hae III markers. Restriction digests were performed in order to confirm PCR product specificity. Densitometry was used for quantitative analysis of the ethidium bromide stained gels.

TGF-β1 mRNA [8] = experiment: TGF-β1 mRNA in human neonatal fibroblasts by RT-PCR; type: cell-based; details: 100 and 200 μM
Procedure: as §4, §5, §6

[9] = BAEC + RA (10 μM) + test agent 100 μM

What does the source list for IGF-II: Recombinant human IGF-II?
effect on TGF-β1 activation, in words (TGF-β1 activation [1]): inhibited TGF-β1 activation; active TGF-β1, % Control (STD) (TGF-β1 activation [1]; IGF-II 15 nM): 65.1%; active TGF-β1, % Control (STD) (TGF-β1 activation [1]; IGF-II 30 nM): 54.3%; effect on TGF-β1 activation, in words (TGF-β1 activation [1]; IGF-II 15 and 30 nM): dose-dependent inhibitory effect

Which results are given for “rHLTGF-β1: Recombinant human latent TGF-β1”?
% Active (TGF-β1 activation [2]; LPS): 12.2%; Active TGF-β1 (TGF-β1 activation [2]; LPS): 48.8 (3.5) pg/ml; Total TGF-β1 (TGF-β1 activation [2]; LPS): 399 (44.5) pg/ml; % Active (TGF-β1 activation [2]; No LPS): 3.3%; Active TGF-β1 (TGF-β1 activation [2]; No LPS): 10.9 (7.2) pg/ml; Total TGF-β1 (TGF-β1 activation [2]; No LPS): 324 (7.2) pg/ml

Which “% ACTIVE TGF-β1 (STD)” value (TGF-β1 activation [3]; HMB-2, M6P 100 μM, DCA 100 μM, antibody 1:1500 dil) does the source give for `CN(C)c1cccc2c(S(=O)(=O)NCCCCCN)cccc12` [DCA, monodansylcadaverine] here?
Its value is 110.7%.

What about the “effect on TGF-β1 activation, in words” value (TGF-β1 activation [3]; melanoma cells (HMB-2)) of the same molecule?
Its value is “no effect”.

And the “effect on TGF-β1 activation, in words” value (TGF-β1 activation [4]; prostate cancer cells)?
Its value is “no effect”.

And the “% ACTIVE TGF-β1 (STD)” value (TGF-β1 activation [5]; BOWES, M6P 100 μM, DCA 100 μM, antibody 1:1500 dil)?
Its value is 145%.

What about the “effect on TGF-β1 activation, in words” value (TGF-β1 activation [5]; melanoma cells (Bowes)) of the same molecule?
Its value is “no effect”.

And the “levels of mRNA for TGF-β1, in words” value (TGF-β1 mRNA [6])?
The value was “remained the same”.

For `NCCSSCCN` [Cystamine, cystamine], which “% ACTIVE TGF-β1 (STD)” value (TGF-β1 activation [4]; Adenocarcinoma cells, M6P 100 μM, cystamine 100 μM, antibody 1:1500 dil) is on record?
Its value is 91.1%.

And the “active TGF-β1, % Control (STD)” value (TGF-β1 activation [1]; 50 μM M6P + 100 μM putrescine or cystamine)?
The value was “did not show additive effect”.

For `O=P(O)(O)O[C@H]1O[C@H](CO)[C@@H](O)[C@H](O)[C@@H]1O` [M1P, alpha-D(+)mannose 1-phosphate], which “inhibitory effect on TGF-β1 activation, in words” value (TGF-β1 activation [7]; 100 μM, BAEC treated with RA) is on record?
The value was “no significant inhibitory effects”.

What about the “% Active” value (TGF-β1 activation [7]; [9]) of the same molecule?
Its value is 7.6%.

What about the “Active TGF-β1” value (TGF-β1 activation [7]; [9]) of the same molecule?
The value was 280 pg/mL.

What about the “Total TGF-β1” value (TGF-β1 activation [7]; [9]) of the same molecule?
The value was 3686 pg/mL.

What about the “effect on M6P/IGF-II receptor mRNA level, in words” value (M6P/IGF-II receptor mRNA) of the same molecule?
The value was “no effects”.

What about the “effect on TGF-β1 mRNA level, in words” value (TGF-β1 mRNA [8]) of the same molecule?
Its value is “no effects”.
